Assay results: paper PMC11274128, “Modification and Synergistic Studies of a Novel Frog Antimicrobial Peptide against Pseudomonas aeruginosa Biofilms” (Antibiotics, 2024)
Ends that are not written are not given here.

What follows are substances tested on E. faecalis (NCTC 12697) (assay: microbe, parasite or virus in culture). Details: planktonic E. faecalis NCTC 12697; 37 °C; nine repeats of three independent experiments.
Type: cell-based, Enterococcus faecalis
Excerpt: (§1) The minimum inhibitory concentration (MIC) is the minimum concentration of an antimicrobial agent that prevents the visible growth of a bacterium or bacteria. The MIC is an important piece of data for research on new antimicrobial agents and helps in the effective selection of antibiotics to improve the success of treatment. The minimum bactericidal concentration (MBC) is defined as the lowest antibiotic concentration that kills 99.9% of the inoculum. This study mainly contained eight different microorganisms, which were Staphylococcus aureus (ATCC 6538), methicillin-resistant Staphylococcus aureus (NCTC 12493), Enterococcus faecalis (NCTC 12697), Escherichia coli (ATCC 8739), Klebsiella pneumoniae (ATCC 43816), Pseudomonas aeruginosa (ATCC CRM 9027), Acinetobacter baumannii (BAA 747), and Candida albicans (ATCC 10231). The bacteria were incubated in the compatible medium at 37 °C overnight.
With GLLSGVLGAGKKIVGLSGRC [Peptide 1885-C] the MIC was > 128 µM. “GLLSGVLGAGKKIVCGLSGR- [Peptide 1885-R, Rana Box modified analogue of Nigrosin-6VL]” was tested, and the MIC was > 128 µM. “H-GLLSGVLGAGKKIVGLSGR-OH [Peptide 1782-R]” was tested, and the MIC was > 128 µM.

Same assay, conditions: planktonic E. faecalis NCTC 12697; lowest concentration killing 99.9% of inoculum
For GLLSGVLGAGKKIVGLSGRC [Peptide 1885-C], the MBC was > 128 µM. “GLLSGVLGAGKKIVCGLSGR- [Peptide 1885-R, Rana Box modified analogue of Nigrosin-6VL]” was tested, and the MBC was > 128 µM. With “H-GLLSGVLGAGKKIVGLSGR-OH [Peptide 1782-R]” the MBC was > 128 µM.

Each substance was assayed on MRSA (NCTC 12493) (assay: microbe, parasite or virus in culture). Details: planktonic MRSA NCTC 12493; 37 °C; nine repeats of three independent experiments.
Type: cell-based, methicillin-resistant Staphylococcus aureus
Excerpt: as §1
With GLLSGVLGAGKKIVGLSGRC [Peptide 1885-C] the MIC was > 128 µM. In the case of “GLLSGVLGAGKKIVCGLSGR- [Peptide 1885-R, Rana Box modified analogue of Nigrosin-6VL]”, the MIC is reported as 64 µM. “H-GLLSGVLGAGKKIVGLSGR-OH [Peptide 1782-R]” was tested, and the MIC was > 128 µM.

Same assay, conditions: planktonic MRSA NCTC 12493; lowest concentration killing 99.9% of inoculum
For GLLSGVLGAGKKIVGLSGRC [Peptide 1885-C], the MBC was > 128 µM. Work on “GLLSGVLGAGKKIVCGLSGR- [Peptide 1885-R, Rana Box modified analogue of Nigrosin-6VL]” yielded an MBC of 64 µM. With “H-GLLSGVLGAGKKIVGLSGR-OH [Peptide 1782-R]” the MBC was > 128 µM.

These substances were tested on S. aureus (ATCC 6538) (assay: microbe, parasite or virus in culture). Details: planktonic S. aureus ATCC 6538; 37 °C; nine repeats of three independent experiments.
Type: cell-based, Staphylococcus aureus
Excerpt: as §1
With GLLSGVLGAGKKIVGLSGRC [Peptide 1885-C] the MIC was > 128 µM. “GLLSGVLGAGKKIVCGLSGR- [Peptide 1885-R, Rana Box modified analogue of Nigrosin-6VL]” showed an MIC of 128 µM. For “H-GLLSGVLGAGKKIVGLSGR-OH [Peptide 1782-R]”, the MIC was > 128 µM.

Same assay, conditions: planktonic S. aureus ATCC 6538; lowest concentration killing 99.9% of inoculum
GLLSGVLGAGKKIVGLSGRC [Peptide 1885-C] was tested, and the MBC was > 128 µM. For “GLLSGVLGAGKKIVCGLSGR- [Peptide 1885-R, Rana Box modified analogue of Nigrosin-6VL]”, the MBC was > 128 µM. For “H-GLLSGVLGAGKKIVGLSGR-OH [Peptide 1782-R]”, the MBC was > 128 µM.

Each substance was assayed on E. coli (ATCC 8739) (assay: microbe, parasite or virus in culture). Details: planktonic E. coli ATCC 8739; 37 °C; nine repeats of three independent experiments.
Type: cell-based, Escherichia coli
Excerpt: as §1
For “H-GLLSGVLGAGKKIVGLSGR-OH [Peptide 1782-R]”, the MIC was 128 µM.

Same assay, conditions: planktonic E. coli ATCC 8739; 37 °C; nine repeats of three independent experiments; read-out: MIC
GLLSGVLGAGKKIVGLSGRC [Peptide 1885-C] was tested, and the MIC was 16 µM. “GLLSGVLGAGKKIVCGLSGR- [Peptide 1885-R, Rana Box modified analogue of Nigrosin-6VL]” gave an MIC of 32 µM.

Same assay, conditions: planktonic E. coli ATCC 8739; lowest concentration killing 99.9% of inoculum
“H-GLLSGVLGAGKKIVGLSGR-OH [Peptide 1782-R]” was tested, and the MBC was > 128 µM.

Same assay, conditions: planktonic E. coli ATCC 8739; lowest concentration killing 99.9% of inoculum; read-out: MBC
Substance GLLSGVLGAGKKIVGLSGRC [Peptide 1885-C] has an MBC of 32 µM. “GLLSGVLGAGKKIVCGLSGR- [Peptide 1885-R, Rana Box modified analogue of Nigrosin-6VL]” gave an MBC of 64 µM.

These substances were tested on C. albicans (ATCC 10231) (assay: not given). Details: yeast C. albicans ATCC 10231; 37 °C; nine repeats of three independent experiments.
Type: cell-based, Candida albicans
Excerpt: as §1
With GLLSGVLGAGKKIVGLSGRC [Peptide 1885-C] the MIC was > 128 µM. With “GLLSGVLGAGKKIVCGLSGR- [Peptide 1885-R, Rana Box modified analogue of Nigrosin-6VL]” the MIC was > 128 µM. For “H-GLLSGVLGAGKKIVGLSGR-OH [Peptide 1782-R]”, the MIC was > 128 µM.

Same assay, conditions: yeast C. albicans ATCC 10231; lowest concentration killing 99.9% of inoculum
GLLSGVLGAGKKIVGLSGRC [Peptide 1885-C] was tested, and the MBC was > 128 µM. “GLLSGVLGAGKKIVCGLSGR- [Peptide 1885-R, Rana Box modified analogue of Nigrosin-6VL]” was tested, and the MBC was > 128 µM. For “H-GLLSGVLGAGKKIVGLSGR-OH [Peptide 1782-R]”, the MBC was > 128 µM.

The substances below were run on A. baumannii (BAA 747) (assay: microbe, parasite or virus in culture). Details: planktonic A. baumannii BAA 747; 37 °C; nine repeats of three independent experiments.
Type: cell-based, Acinetobacter baumannii
Excerpt: as §1
With GLLSGVLGAGKKIVGLSGRC [Peptide 1885-C] the MIC was > 128 µM. “GLLSGVLGAGKKIVCGLSGR- [Peptide 1885-R, Rana Box modified analogue of Nigrosin-6VL]” showed an MIC of 128 µM. With “H-GLLSGVLGAGKKIVGLSGR-OH [Peptide 1782-R]” the MIC was > 128 µM.

Same assay, conditions: planktonic A. baumannii BAA 747; lowest concentration killing 99.9% of inoculum
In the case of GLLSGVLGAGKKIVGLSGRC [Peptide 1885-C], the MBC is reported as > 128 µM. In the case of “GLLSGVLGAGKKIVCGLSGR- [Peptide 1885-R, Rana Box modified analogue of Nigrosin-6VL]”, the MBC is reported as > 128 µM. “H-GLLSGVLGAGKKIVGLSGR-OH [Peptide 1782-R]” was tested, and the MBC was > 128 µM.

These substances were tested on horse red blood cells (assay: not given). Details: horse red blood cells in PBS, 37 °C, 2 h, absorbance 570 nm; positive control 0.1% Triton.
In the case of GLLSGVLGAGKKIVGLSGRC [Peptide 1885-C], the HC10 is reported as >256 µM. For “GLLSGVLGAGKKIVCGLSGR- [Peptide 1885-R, Rana Box modified analogue of Nigrosin-6VL]”, the HC10 was >256 µM. For “H-GLLSGVLGAGKKIVGLSGR-OH [Peptide 1782-R]”, the HC10 was >256 µM.

The substances below were run on Yeast (assay: Geometric mean of MICs and TI value). Details: C. albicans ATCC 10231.
Type: cell-based, Candida albicans
Experimental: (§2) The therapeutic potential of antimicrobial agents was valued based on their selectivity toward bacteria in reference to erythrocytes. The TI value was calculated from the results of antibacterial and haemolysis experiments of peptides using the following formula:TI value = HC10 / GMMICs.
(§3) GM was the geometric mean of MICs against all tested bacteria.
In the case of GLLSGVLGAGKKIVGLSGRC [Peptide 1885-C], the “GM (geometric mean of MICs), Yeast” value is reported as 256.00 µM. With “GLLSGVLGAGKKIVCGLSGR- [Peptide 1885-R, Rana Box modified analogue of Nigrosin-6VL]” the “GM (geometric mean of MICs), Yeast” value was 256.00 µM. “H-GLLSGVLGAGKKIVGLSGR-OH [Peptide 1782-R]” was tested, and the “GM (geometric mean of MICs), Yeast” value was 256.00 µM.

Each substance was assayed on K. pneumoniae (ATCC 43816) (assay: microbe, parasite or virus in culture). Details: planktonic K. pneumoniae ATCC 43816; 37 °C; nine repeats of three independent experiments.
Type: cell-based, Klebsiella pneumoniae
Excerpt: as §1
With “H-GLLSGVLGAGKKIVGLSGR-OH [Peptide 1782-R]” the MIC was > 128 µM.

Same assay, conditions: planktonic K. pneumoniae ATCC 43816; 37 °C; nine repeats of three independent experiments; read-out: MIC
Work on GLLSGVLGAGKKIVGLSGRC [Peptide 1885-C] yielded an MIC of 64 µM. Substance “GLLSGVLGAGKKIVCGLSGR- [Peptide 1885-R, Rana Box modified analogue of Nigrosin-6VL]” has an MIC of 32 µM.

Same assay, conditions: planktonic K. pneumoniae ATCC 43816; lowest concentration killing 99.9% of inoculum
“H-GLLSGVLGAGKKIVGLSGR-OH [Peptide 1782-R]” was tested, and the MBC was > 128 µM.

Same assay, conditions: planktonic K. pneumoniae ATCC 43816; lowest concentration killing 99.9% of inoculum; read-out: MBC
For GLLSGVLGAGKKIVGLSGRC [Peptide 1885-C], the MBC was 128 µM. With “GLLSGVLGAGKKIVCGLSGR- [Peptide 1885-R, Rana Box modified analogue of Nigrosin-6VL]” the MBC was 64 µM.

The substances below were run on P. aeruginosa (ATCC CRM 9027) (assay: microbe, parasite or virus in culture). Details: planktonic P. aeruginosa ATCC CRM 9027; 37 °C; nine repeats of three independent experiments.
Type: cell-based, Pseudomonas aeruginosa
Excerpt: as §1
In the case of “H-GLLSGVLGAGKKIVGLSGR-OH [Peptide 1782-R]”, the MIC is reported as > 128 µM.

Same assay, conditions: planktonic P. aeruginosa ATCC CRM 9027; 37 °C; nine repeats of three independent experiments; read-out: MIC
GLLSGVLGAGKKIVGLSGRC [Peptide 1885-C] showed an MIC of 64 µM. In the case of “GLLSGVLGAGKKIVCGLSGR- [Peptide 1885-R, Rana Box modified analogue of Nigrosin-6VL]”, the MIC is reported as 32 µM.

Same assay, conditions: planktonic P. aeruginosa ATCC CRM 9027; lowest concentration killing 99.9% of inoculum
In the case of “H-GLLSGVLGAGKKIVGLSGR-OH [Peptide 1782-R]”, the MBC is reported as > 128 µM.

Same assay, conditions: planktonic P. aeruginosa ATCC CRM 9027; lowest concentration killing 99.9% of inoculum; read-out: MBC
GLLSGVLGAGKKIVGLSGRC [Peptide 1885-C] gave an MBC of 128 µM. “GLLSGVLGAGKKIVCGLSGR- [Peptide 1885-R, Rana Box modified analogue of Nigrosin-6VL]” gave an MBC of 64 µM.

The substances below were run on G− Bacteria (assay: Geometric mean of MICs and TI value). Details: geometric mean of MICs against tested Gram-negative bacteria.
Type: cell-based
Experimental: as §2, §3
GLLSGVLGAGKKIVGLSGRC [Peptide 1885-C] was tested, and the “GM (geometric mean of MICs), G− Bacteria” value was 64.00 µM. In the case of “GLLSGVLGAGKKIVCGLSGR- [Peptide 1885-R, Rana Box modified analogue of Nigrosin-6VL]”, the “GM (geometric mean of MICs), G− Bacteria” value is reported as 45.25 µM. For “H-GLLSGVLGAGKKIVGLSGR-OH [Peptide 1782-R]”, the “GM (geometric mean of MICs), G− Bacteria” value was 215.27 µM.

Each substance was assayed on G+ Bacteria (assay: Geometric mean of MICs and TI value). Details: geometric mean of MICs against tested Gram-positive bacteria.
Type: cell-based
Experimental: as §2, §3
With GLLSGVLGAGKKIVGLSGRC [Peptide 1885-C] the “GM (geometric mean of MICs), G+ Bacteria” value was 256.00 µM. With “GLLSGVLGAGKKIVCGLSGR- [Peptide 1885-R, Rana Box modified analogue of Nigrosin-6VL]” the “GM (geometric mean of MICs), G+ Bacteria” value was 128.00 µM. “H-GLLSGVLGAGKKIVGLSGR-OH [Peptide 1782-R]” was tested, and the “GM (geometric mean of MICs), G+ Bacteria” value was 256.00 µM.
